For orientation: Ki means a dissociation constant, usually derived from enzyme kinetics or from competition with a known ligand.

Structures are written as SMILES.

The nature of this assay: Kinetic constant for galactosyltransferase inhibition was determined.

For the molecule `O=c1ccn(C2O[C@H](COP(=O)(O)OP(=O)(O)C3O[C@H](CO)[C@@H](O)[C@H](O)[C@H]3O)[C@@H](O)[C@H]2O)c(=O)[nH]1` (some centres not stated), affinity was put at a Ki of 165 µM.

`O=c1ccn([C@@H]2O[C@H](COP(=O)(O)OP(=O)(O)OP(=O)(O)O)[C@@H](O)[C@H]2O)c(=O)[nH]1` [uridine 5'-(tetrahydrogen triphosphate)] displayed a Ki of 128 µM.
